According to ChEMBL document CHEMBL1201862, “PubChem BioAssay data set” (2004):
Active and inactive are the calls of the source. For most assays here, no stated cut-off is given here; in the data, actives have a measured EC50 and inactives only a lower limit.

Molecular target: T1, Cytochrome P450 1A2 (Homo sapiens, UniProt P05177);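 further: PubChem cytochrome P450 panel assay, CYP1A2 panel member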
T1 sequence (P05177 whole entry): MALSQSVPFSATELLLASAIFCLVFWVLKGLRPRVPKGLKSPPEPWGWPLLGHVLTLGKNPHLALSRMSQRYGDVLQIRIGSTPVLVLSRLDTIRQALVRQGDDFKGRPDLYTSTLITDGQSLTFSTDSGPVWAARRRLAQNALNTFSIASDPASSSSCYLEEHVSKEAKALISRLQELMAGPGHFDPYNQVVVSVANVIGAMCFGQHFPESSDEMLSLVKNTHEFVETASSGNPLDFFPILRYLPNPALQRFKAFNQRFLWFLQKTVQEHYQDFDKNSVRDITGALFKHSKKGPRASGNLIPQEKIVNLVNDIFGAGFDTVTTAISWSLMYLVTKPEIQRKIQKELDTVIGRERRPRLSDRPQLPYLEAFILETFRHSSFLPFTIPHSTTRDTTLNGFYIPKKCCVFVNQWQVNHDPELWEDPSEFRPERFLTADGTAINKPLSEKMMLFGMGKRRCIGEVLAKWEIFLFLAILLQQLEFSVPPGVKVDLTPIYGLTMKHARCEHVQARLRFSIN

| AC50 | Compound |
| --- | --- |
| 14.1 µM (inconclusive) | CCOc1ccc(N(C(C)C(=O)N/N=C(\C)c2cccc(NC(=O)c3ccccc3)c2)S(C)(=O)=O)cc1 (stereo not drawn) |
| 3.16 µM (inconclusive) | O=C1c2ccccc2C(=O)N1CCSC(=S)N1CCOCC1 |
| 14.1 µM (inconclusive) | CCNC(=O)c1ccc(-n2nc(C)cc2-c2ccccc2)cc1 |
| 31.6 µM (inconclusive) | CS(=O)(=O)Nc1cccc(-c2ccc3ncnc(NC4CCNCC4)c3c2)c1 |
| 39.8 µM (inconclusive) | C[C@@](N)(C(=O)O)c1ccc(P(=O)(O)O)cc1 |

| Compound | AC50 |
| --- | --- |
| CC1(C)CCC(C)(C)c2c1ccc(O)c2Cc1c(O)ccc2c1C(C)(C)CCC2(C)C | 5.01 µM (inconclusive) |
| O=[N+]([O-])c1ccc2ncccc2c1CCc1c([N+](=O)[O-])ccc2ncccc12 | 3.16 µM (inconclusive) |
| CN1CCN(c2ccc([N+](=O)[O-])c3[nH]o[n+](=O)c23)CC1 | 0.398 µM (inconclusive) |

Tested on: not listed separately
Test: inhibitors of intracellular T. cruzi replication, confirmation, NIH3T3 host cells, beta-gal luminescence (AID 2044);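 further: intracellular parasites grown in NIH/3T3 mouse fibroblasts as host cells; luminescent beta-galactosidase reporter signal from transgenic T. cruzi replicating inside host cells; inhibitors lower the luminescence signal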
Assay type: functional, cell-based

| Compound | EC50 |
| --- | --- |
| COCc1c(Br)c(C)nc(OCC(=O)N/N=C/c2cc(C)n(-c3ccc([N+](=O)[O-])cc3)c2C)c1C#N | 1.95 µM (active) |
| O=C(Nc1nc(-c2ccccc2)c(-c2ccccc2)s1)c1ccc(S(=O)(=O)N(CCCl)CCCl)cc1 | 1.25 µM (active) |
| CC(C)CCN1CCN(C2CCN(c3ccc4c(c3)OCO4)CC2)CC1CCO (stereo not drawn) | 1.56 µM (active) |
| CCCCCCSc1ccc(-c2nc3ccc(C)cn3c2NCc2ccccc2)cc1OC | 0.701 µM (active) |
| Fc1ccc(N/N=C/c2ccc(N3CCOCC3)cc2)c(F)c1 | 0.406 µM (active) |
| COc1ccc(/C=C2\CCCc3c2nc2ccccc2c3C(=O)OCC(=O)c2c(N)n(C)c(=O)n(C)c2=O)cc1 | 1.05 µM (active) |
| Cn1cc(CN2CCCC(CO)(Cc3ccccc3)C2)c2ccccc21 (stereo not drawn) | 0.62 µM (active) |
| N#Cc1cnn(-c2nc(SCc3ccccc3)nc3sc4c(c23)CCCC4)c1N | 2.24 µM (active) |
| CN1CCC(N(C)S(=O)(=O)c2ccc(NC(=O)COc3cccc(Cl)c3)cc2)CC1 | 0.268 µM (active) |
| CC(C)CN1CCCC(N2CCN(c3cccc(Cl)c3)CC2)C1 (stereo not drawn) | 3.19 µM (active) |
| O=[N+]([O-])c1ccc2c(OCc3nnc(-c4ccccc4Br)o3)ncnc2c1 | 0.213 µM (active) |
| O=C(c1ccc([N+](=O)[O-])s1)N1CCc2ccccc2C1 | 0.476 µM (active) |
| CCOC(=O)Nc1ccc2c(c1)N(C(=O)CCN(C)C)c1ccccc1S2 | 1.8 µM (active) |
| CCN(CC)CCNc1c2c(c(C#N)c3nc4ccccc4n13)CCCC2 | 0.226 µM (active) |
| NC(=S)N/N=C/c1ccc(-c2cc(Cl)c(Cl)cc2Cl)o1 | 0.122 µM (active) |

Tested on: not listed separately
Test: cytotoxicity toward NIH3T3 fibroblasts, dose response, counter-screen, cell-based, ATP luminescence, mouse fibroblasts (AID 2010);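 further: cells exposed to compound for about 90 hours before reading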
Assay type: functional

| Compound | EC50 |
| --- | --- |
| COCc1c(Br)c(C)nc(OCC(=O)N/N=C/c2cc(C)n(-c3ccc([N+](=O)[O-])cc3)c2C)c1C#N | > 60 µM (not active) |
| O=C(Nc1nc(-c2ccccc2)c(-c2ccccc2)s1)c1ccc(S(=O)(=O)N(CCCl)CCCl)cc1 | > 30 µM (not active) |
| CC(C)CCN1CCN(C2CCN(c3ccc4c(c3)OCO4)CC2)CC1CCO (stereo not drawn) | > 60 µM (not active) |
| CCCCCCSc1ccc(-c2nc3ccc(C)cn3c2NCc2ccccc2)cc1OC | 8.59 µM (active) |
| Fc1ccc(N/N=C/c2ccc(N3CCOCC3)cc2)c(F)c1 | > 30 µM (not active) |
| COc1ccc(/C=C2\CCCc3c2nc2ccccc2c3C(=O)OCC(=O)c2c(N)n(C)c(=O)n(C)c2=O)cc1 | > 60 µM (not active) |
| Cn1cc(CN2CCCC(CO)(Cc3ccccc3)C2)c2ccccc21 (stereo not drawn) | > 60 µM (not active) |
| N#Cc1cnn(-c2nc(SCc3ccccc3)nc3sc4c(c23)CCCC4)c1N | > 60 µM (not active) |
| CN1CCC(N(C)S(=O)(=O)c2ccc(NC(=O)COc3cccc(Cl)c3)cc2)CC1 | > 30 µM (not active) |
| CC(C)CN1CCCC(N2CCN(c3cccc(Cl)c3)CC2)C1 (stereo not drawn) | > 60 µM (not active) |
| O=[N+]([O-])c1ccc2c(OCc3nnc(-c4ccccc4Br)o3)ncnc2c1 | 10.4 µM (active) |
| O=C(c1ccc([N+](=O)[O-])s1)N1CCc2ccccc2C1 | > 60 µM (not active) |
| CCOC(=O)Nc1ccc2c(c1)N(C(=O)CCN(C)C)c1ccccc1S2 | > 60 µM (not active) |
| CCN(CC)CCNc1c2c(c(C#N)c3nc4ccccc4n13)CCCC2 | > 60 µM (not active) |
| NC(=S)N/N=C/c1ccc(-c2cc(Cl)c(Cl)cc2Cl)o1 | > 60 µM (inconclusive) |
